Experimental data reported in PubChem BioAssay AID1963850 (Molecular Pharmacology Branch, DTP, NCI, 2024).

System: 192522-019-R-J2-PDC complex tumor spheroid viability
Assay: Anticancer human tumor 192522-019-R-J2-PDC patient-derived colon adenocarcinoma cell line growth inhibition [POLQ]
Settings: for IC50: curve of first compound; for viability, T/C: stronger effect = lower value
Procedure: Multicellular complex tumor spheroid response to Polymerase (POL) inhibitors (novobiocin, ART-558, RP6685) in combination with a variety of drugs and investigational agents in selected tumor cell lines
The POL inhibitors (novobiocin, ART-558, and RP6685) were evaluated both individually and in combination with standard of care and investigational anticancer small molecules within a complex spheroid model of solid tumors. . Complex spheroids include a stromal component modeled by human endothelial cells (HUVEC) and fibroblasts modeled by human mesenchymal stem cells (MSCs). The concentration ranges selected for each drug and investigational agent were based upon clinically achievable concentrations if the clinical Cmax of the agent was known.
Compounds. The drugs and investigational agents: novobiocin (NSC847541), ART-558 (NSC835418), RP-6685 (NSC848927), peposertib (NSC802822), ceralasertib (NSC780249), elimusertib (NSC800525), camonsertib (NSC841442), AZD-1390 (NSC803789), olaparib (NSC753686), talazoparib (NSC767125), rucaparib (NSC756644), sotorasib (NSC818433), MRTX-1133 (NSC836407), SN-38 (NSC673596), topotecan (NSC609699), epotoside (NSC141540), doxorubicin (NSC123127), gemcitabine (NSC613327), 5-fluorouracil (NSC19893), paclitaxel (NSC125973), vemurafenib (NSC761431), MSA-2 (NSC828583), SN-011 (NSC837082), adavosertib (NSC754352), prexasertib (NSC758257), carboplatin (NSC241240) and oxaliplatin (NSC266046), were obtained from the National Cancer Institute (NCI) Developmental Therapeutics Program Chemical Repository (21). The FDA-approved anticancer drug set is available from the Developmental Therapeutics Program at https://dtp.cancer.gov/organization/dscb/obtaining/. […] The stock solutions were prepared in dimethyl sulfoxide (DMSO, Sigma-Aldrich, St. Louis, MO, cat. D2650), except for the platinum compounds which were prepared in saline (Quality Biological, Gaithersburg, MD, cat. 114-055-101), at 800-fold the tested concentration and stored at -70 degrees C prior to their use. All drugs and investigational agents were tested over a range starting from a high concentration at or near the clinical Cmax and decreasing in half-log increments. If the clinical Cmax for an agent had not been determined, the highest concentration tested was 10 microM, except for SN-38, which was tested at a high concentration of 1 microM.
Cell Culture. All cells were maintained in an incubator at 37 degrees C and 5% CO2 with 95% humidity. The PDC lines were cultured according to standard operating procedures established by the NCI PDMR (https://pdmr.cancer.gov). Table 3 of the manuscript, lists the cell lines along with the number of the three cell types plated to form the mct-spheroids and media for tumor cell growth. After thawing, all PDC lines, except 997537-175-T-J1-PDC and 415267-285-R-J2-PDC, were cultured in Matrigel-coated flasks prepared with a working solution of 1X Ham's F-12 nutrient mix, without supplementation (Thermo Fisher Scientific, cat. 11765054), 100 U/mL penicillin-streptomycin (Thermo Fisher Scientific, cat. 15140122), and 2.5% Matrigel (Corning Inc., Corning, NY, cat. 354248) for the first three passages. The two PDC lines 997537-175-T-J1-PDC and 415267-285-R-J2-PDC were cultured on uncoated flasks. The 857933-349-R-J2-PDC line was cultured in 6C/Colon 1B media containing advanced DMEM/F-12 (Thermo Fisher Scientific, cat. 12634028), 10 mM HEPES (Thermo Fisher Scientific, cat. 15630080), 1X GlutaMAX supplement (Thermo Fisher Scientific, cat. 35050061), 0.1 mg/mL primocin (InvivoGen, San Diego, CA, cat. ant-pm-2), 10% defined fetal bovine serum, heat inactivated (HyClone Laboratories Inc., Logan, UT, cat. SH30070.03HI), 50% L-WRN conditioned media (ATCC, cat. CRL-3276), 1.25 mM N-Acetyl-L-cysteine (Sigma-Aldrich, cat. A9165), 10 mM nicotinamide (Sigma-Aldrich, cat. N0636), 1X B-27 supplement (Thermo Fisher Scientific, cat. 17504044), 1X N-2 supplement (Thermo Fisher Scientific, cat. […]
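Further: spheroids exposed to drugs for seven days before reading.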
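Wherever viability, T/C is given: 100% = DMSO vehicle control viability in luminescence.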

Compound `COc1cccc(OCCCN)c1-c1cc(Nc2cnc(C#N)cn2)n[nH]1` + COC1C(OC(N)=O)C(O)C(Oc2ccc3c(O)c(NC(=O)c4ccc(O)c(CC=C(C)C)c4)c(=O)oc3c2C)OC1(C)C has an IC50 (second compound 0.0316 µM) of 14.3 nM, an IC50 (second compound 0.1 µM) of 15.7 nM and an IC50 (second compound 0.316 µM) of 15.8 nM. The IC50 (second compound 1 µM) was 16.6 nM, the IC50 (second compound 3.16 µM) was 18.6 nM and the IC50 (second compound 10 µM) was 18.9 nM. It also gave a viability, T/C (second compound 0.0316 µM, first compound 0.00316 µM) of 96%, a viability, T/C (second compound 0.0316 µM, first compound 0.01 µM) of 55.5% and a viability, T/C (second compound 0.0316 µM, first compound 0.0316 µM) of 38%. The viability, T/C (second compound 0.0316 µM, first compound 0.1 µM) was 30.8%, the viability, T/C (second compound 0.0316 µM, first compound 0.316 µM) was 30.7% and the viability, T/C (second compound 0.0316 µM, first compound 1 µM) was 30.5%. For the same compound, the viability, T/C (second compound 0.1 µM, first compound 0.00316 µM) was 94.7%, the viability, T/C (second compound 0.1 µM, first compound 0.01 µM) was 58.7% and the viability, T/C (second compound 0.1 µM, first compound 0.0316 µM) was 35.3%. The viability, T/C (second compound 0.1 µM, first compound 0.1 µM) was 35%, the viability, T/C (second compound 0.1 µM, first compound 0.316 µM) was 28.9% and the viability, T/C (second compound 0.1 µM, first compound 1 µM) was 28.2%. For the same compound, the viability, T/C (second compound 0.316 µM, first compound 0.00316 µM) was 90%, the viability, T/C (second compound 0.316 µM, first compound 0.01 µM) was 60.6% and the viability, T/C (second compound 0.316 µM, first compound 0.0316 µM) was 33.6%. It also gave a viability, T/C (second compound 0.316 µM, first compound 0.1 µM) of 31.8%, a viability, T/C (second compound 0.316 µM, first compound 0.316 µM) of 27.2% and a viability, T/C (second compound 0.316 µM, first compound 1 µM) of 29.9%. For the same compound, the viability, T/C (second compound 1 µM, first compound 0.00316 µM) was 84.8%, the viability, T/C (second compound 1 µM, first compound 0.01 µM) was 61.8% and the viability, T/C (second compound 1 µM, first compound 0.0316 µM) was 35.2%. It also gave a viability, T/C (second compound 1 µM, first compound 0.1 µM) of 30.1%, a viability, T/C (second compound 1 µM, first compound 0.316 µM) of 30.9% and a viability, T/C (second compound 1 µM, first compound 1 µM) of 30.5%. The viability, T/C (second compound 3.16 µM, first compound 0.00316 µM) was 87.6%, the viability, T/C (second compound 3.16 µM, first compound 0.01 µM) was 69.5% and the viability, T/C (second compound 3.16 µM, first compound 0.0316 µM) was 33.3%. The viability, T/C (second compound 3.16 µM, first compound 0.1 µM) was 28.9%, the viability, T/C (second compound 3.16 µM, first compound 0.316 µM) was 35.6% and the viability, T/C (second compound 3.16 µM, first compound 1 µM) was 32.1%. It also gave a viability, T/C (second compound 10 µM, first compound 0.00316 µM) of 89.7%, a viability, T/C (second compound 10 µM, first compound 0.01 µM) of 64.6% and a viability, T/C (second compound 10 µM, first compound 0.0316 µM) of 38.4%. It also gave a viability, T/C (second compound 10 µM, first compound 0.1 µM) of 32%, a viability, T/C (second compound 10 µM, first compound 0.316 µM) of 32.5% and a viability, T/C (second compound 10 µM, first compound 1 µM) of 34%.
